# From patent US10408837B2 (priority 2013, dated 2019)
# “And” between values parts separate entries of the source, which are not always exact repeats. Equal entries are not always repeated.
# Biological target: BoNT/E (Clostridium botulinum, UniProt Q00496)
sequence,measurement,value
IIIGNLGNEIDTQNRQIDRIMAKAKSKKR [Pep-52],Relative product,581 and 511
